# Active and inactive are the calls of the source. How the calls were made is not given here.
# Biological target: Glycogen synthase kinase-3 beta splice variant X1 (Bos taurus) (UniProt A0A059UE90)
# Assay: Inhibition of bovine cerebral TPK1 assessed as reduction in P-GS1 phosphorylation using [32gammaP]ATP incubated for 2 hrs by liquid scintillation counting method
row,SMILES,inhibition
1,Cn1c(N2CCO[C@@H](c3ccc(OC4CCCCC4)cc3)C2)nc(-c2ccncc2F)cc1=O,Active
2,Cn1c(N2CCOC(c3cccc(-c4cncnc4)c3)C2)nc(-c2ccncc2F)cc1=O (racemic),Active
3,CN(c1ccc([C@H]2CN(c3nc(-c4ccncc4F)cc(=O)n3C)CCO2)cc1)C1C2CC3CC(C2)CC1C3 (stereo partly specified),Active
4,Cn1c(N2CCO[C@@H](c3ccc(N4CCN(CCO)C4=O)cc3)C2)nc(-c2ccncc2F)cc1=O,Active
5,CNc1ccc([C@H]2CN(c3nc(-c4ccncc4F)cc(=O)n3C)CCO2)cc1,Active
6,Cn1c(N2CCN[C@@H](c3ccc(-c4ccc(Cl)cc4)cc3)C2)nc(-c2ccncc2F)cc1=O,Active
7,COc1ccc(NC(=O)C2CC2)cc1[C@H]1CN(c2nc(-c3ccncc3F)cc(=O)n2C)CCO1,Active
8,Cn1c(N2CCN[C@@H](c3ccc(C#N)cc3)C2)nc(-c2ccncc2F)cc1=O,Active
9,Cn1c(N2CCN[C@H](c3ccc(C#N)cc3)C2)nc(-c2ccncc2F)cc1=O,Active
10,COc1ccc(NS(C)(=O)=O)cc1[C@H]1CN(c2nc(-c3ccncc3F)cc(=O)n2C)CCO1,Active
11,CSc1ccc([C@H]2CN(c3nc(-c4ccncc4F)cc(=O)n3C)CCO2)cc1,Active
12,Cn1c(N2CCO[C@@H](c3ccc(N(CC(F)(F)F)CC(F)(F)F)cc3)C2)nc(-c2ccncc2F)cc1=O,Active
13,Cn1c(N2CCO[C@@H](c3ccc(OC(F)(F)F)cc3)C2)nc(-c2ccncc2F)cc1=O,Active
14,Cn1c(N2CCO[C@@H](c3ccc(C(=O)NC4CCCCC4)cc3)C2)nc(-c2ccncc2F)cc1=O,Active
15,Cc1ccc(-c2ccc([C@H]3CN(c4nc(-c5ccncc5F)cc(=O)n4C)CCN3)cc2)cc1,Active
16,COc1cc(Cl)ccc1[C@H]1CN(c2nc(-c3ccncc3F)cc(=O)n2C)CCO1,Active
17,CN1CCN(CC(=O)Nc2ccc([C@H]3CN(c4nc(-c5ccncc5F)cc(=O)n4C)CCO3)cc2)CC1,Active
18,Cn1c(N2CCO[C@@H](c3ccc(NC(=O)CN4CCCC4)cc3)C2)nc(-c2ccncc2F)cc1=O,Active
19,Cn1c(N2CCN[C@@H](c3ccc(-c4ccc(C#N)cc4)cc3)C2)nc(-c2ccncc2F)cc1=O,Active
20,CC(=O)N1CCN(CCOc2ccc([C@H]3CN(c4nc(-c5ccncc5F)cc(=O)n4C)CCO3)cc2)CC1,Active
21,Cn1c(N2CCO[C@@H](c3cccc(N)c3)C2)nc(-c2ccncc2F)cc1=O,Active
22,Cn1c(N2CCO[C@@H](c3ccc(N)c(F)c3)C2)nc(-c2ccncc2F)cc1=O,Active
23,Cn1c(N2CCO[C@@H](c3ccc(Nc4ccncc4)cc3)C2)nc(-c2ccncc2F)cc1=O,Active
24,CN(C)c1ccc([C@H]2CN(c3nc(-c4ccncc4F)cc(=O)n3C)CCN2)cc1,Active
25,Cn1c(N2CCN[C@@H](c3ccc(N4CCC(O)CC4)cc3)C2)nc(-c2ccncc2F)cc1=O,Active
26,Cn1c(N2CCO[C@@H](c3ccc(NC(=O)c4ccccc4)cc3)C2)nc(-c2ccncc2F)cc1=O,Active
27,Cn1c(N2CCOC(c3ccc4c(c3)C(C)(C)CC(=O)N4)C2)nc(-c2ccncc2F)cc1=O (racemic),Active

row,SMILES,inhibition
1,COCCN(c1ccc([C@H]2CN(c3nc(-c4ccncc4F)cc(=O)n3C)CCO2)cc1)C1CCCCC1,Active
2,Cn1c(N2CCO[C@@H](c3ccc(OC4CCCC4)cc3)C2)nc(-c2ccncc2F)cc1=O,Active
3,COc1ccc(C2(O)CCN(C)CC2)cc1[C@H]1CN(c2nc(-c3ccncc3F)cc(=O)n2C)CCO1,Active
4,Cn1c(N2CCO[C@@H](c3ccc(F)c(N)c3)C2)nc(-c2ccncc2F)cc1=O,Active
5,Cn1c(N2CCO[C@@H](c3ccc(N(C4CCCCC4)S(=O)(=O)c4ccccc4)cc3)C2)nc(-c2ccncc2F)cc1=O,Active
6,CN1CCN(c2ccc([C@H]3CN(c4nc(-c5ccncc5F)cc(=O)n4C)CCN3)cc2)CC1,Active
7,Cn1c(N2CCO[C@@H](c3ccc(OCC4CC4)cc3)C2)nc(-c2ccncc2F)cc1=O,Active
8,Cn1c(N2CCO[C@@H](c3ccc(OCCN4CCN(C(=O)c5ccccc5)CC4)cc3)C2)nc(-c2ccncc2F)cc1=O,Active
9,Cn1c(N2CCO[C@@H](c3ccc(NC(=S)Nc4cccnc4)cc3)C2)nc(-c2ccncc2F)cc1=O,Active
10,COc1ccc([C@H]2CN(c3nc(-c4ccncc4F)c(Br)c(=O)n3C)CCO2)cc1,Active
11,Cn1c(N2CCN[C@@H](c3ccc(N4CCCC4)cc3)C2)nc(-c2ccncc2F)cc1=O,Active
12,CCc1nc(-c2ccc([C@H]3CN(c4nc(-c5ccncc5F)cc(=O)n4C)CCN3)cc2)no1,Active
13,Cn1c(N2CCO[C@@H](c3ccc(-c4nnco4)cc3)C2)nc(-c2ccncc2F)cc1=O,Active
14,Cn1c(N2CCO[C@@H](c3ccc(NC(=O)CN4CCCCC4)cc3)C2)nc(-c2ccncc2F)cc1=O,Active
15,CSc1ccc(-c2ccc([C@H]3CN(c4nc(-c5ccncc5F)cc(=O)n4C)CCN3)cc2)cc1,Active
16,CCN(CC)c1ccc([C@H]2CN(c3nc(-c4ccncc4F)cc(=O)n3C)CCO2)c(OC)c1,Active
17,COc1cc(N(C)C)ccc1[C@H]1CN(c2nc(-c3ccncc3F)cc(=O)n2C)CCO1,Active
18,C[C@@H]1CN(c2ccc([C@H]3CN(c4nc(-c5ccncc5F)cc(=O)n4C)CCN3)cc2)C[C@H](C)O1,Active
19,C[C@@H]1CN(c2ccc([C@H]3CN(c4nc(-c5ccncc5F)cc(=O)n4C)CCN3)cc2)C[C@H](C)N1,Active
20,CC(C)c1ccc(-c2ccc([C@H]3CN(c4nc(-c5ccncc5F)cc(=O)n4C)CCN3)cc2)cc1,Active
21,Cn1c(N2CCO[C@@H](c3ccc(CN4CCOCC4)cc3)C2)nc(-c2ccncc2F)cc1=O,Active
22,Cn1c(N2CCO[C@@H](c3ccc(NC45CC6CC(CC(C6)C4)C5)cc3)C2)nc(-c2ccncc2F)cc1=O,Active
23,CCN(CC)Cc1ccc([C@H]2CN(c3nc(-c4ccncc4F)cc(=O)n3C)CCO2)cc1,Active
24,Cn1c(N2CCO[C@@H](c3ccc(N(CCO)C4CCCCC4)cc3)C2)nc(-c2ccncc2F)cc1=O,Active
25,CCOC(=O)Nc1ccc([C@H]2CN(c3nc(-c4ccncc4F)cc(=O)n3C)CCO2)cc1,Active
26,Cn1c(N2CCO[C@@H](c3ccc(NC4CCCC4)cc3)C2)nc(-c2ccncc2F)cc1=O,Active

# Other lines, results leading:
row,inhibition,SMILES
1,Active,Cn1c(N2CCO[C@@H](c3ccc(N4CCN(CCO)CC4)cc3)C2)nc(-c2ccncc2F)cc1=O
2,Active,CC(=O)N(c1ccc([C@H]2CN(c3nc(-c4ccncc4F)cc(=O)n3C)CCO2)cc1)C1CCCCC1
3,Active,Cn1c(N2CCO[C@@H](c3ccc(NC(=O)C4(C)CC4)cc3)C2)nc(-c2ccncc2F)cc1=O
4,Active,CC(=O)N[C@H]1CCN(c2ccc([C@H]3CN(c4nc(-c5ccncc5F)cc(=O)n4C)CCO3)cc2)C1
5,Active,CN(C)[C@@H]1CCN(c2ccc([C@H]3CN(c4nc(-c5ccncc5F)cc(=O)n4C)CCO3)cc2)C1
6,Active,CN(C)[C@@H]1CCN(c2ccc([C@H]3CN(c4nc(-c5ccncc5F)cc(=O)n4C)CCN3)cc2)C1
7,Active,CN(C)c1ccc([C@H]2CN(c3nc(-c4ccncc4F)cc(=O)n3C)CCO2)cc1
8,Active,Cn1c(N2CCO[C@@H](c3ccc(N4CC[C@H](N5CCOCC5)C4)cc3)C2)nc(-c2ccncc2F)cc1=O
9,Active,Cn1c(N2CCOC(c3ccc(Br)cc3)C2)nc(-c2ccncc2F)cc1=O (stereo unspecified)
10,Active,Cn1c(N2CCN[C@@H](c3ccc(N4CC[C@@H](O)C4)cc3)C2)nc(-c2ccncc2F)cc1=O
11,Active,Cn1c(N2CCO[C@@H](c3ccc(N4CCCCC4=O)cc3)C2)nc(-c2ccncc2F)cc1=O
12,Active,Cn1c(N2CCO[C@@H](c3ccc(N4CC[C@@H](O)C4)cc3)C2)nc(-c2ccncc2F)cc1=O
13,Active,Cn1c(N2CCO[C@@H](c3ccc(N4CCCCC4)cc3)C2)nc(-c2ccncc2F)cc1=O
14,Active,CC(=O)N(C)[C@@H]1CCN(c2ccc([C@H]3CN(c4nc(-c5ccncc5F)cc(=O)n4C)CCO3)cc2)C1
15,Active,CC(=O)c1ccc([C@H]2CN(c3nc(-c4ccncc4F)cc(=O)n3C)CCO2)cc1
16,Active,Cn1c(N2CCO[C@@H](c3ccc(N4CC(O)C4)cc3)C2)nc(-c2ccncc2F)cc1=O
17,Active,CC(=O)N(C)c1ccc([C@H]2CN(c3nc(-c4ccncc4F)cc(=O)n3C)CCO2)cc1
18,Active,Cn1c(N2CCO[C@@H](c3ccc(N4CCCNC4=O)cc3)C2)nc(-c2ccncc2F)cc1=O
19,Active,Cn1c(N2CCO[C@@H](c3ccc(N4CC[C@@H](N5CCCC5)C4)cc3)C2)nc(-c2ccncc2F)cc1=O
20,Active,Cn1c(N2CCO[C@@H](c3ccc(N4CCC[C@H]5CCCC[C@@H]54)cc3)C2)nc(-c2ccncc2F)cc1=O
21,Active,CC(C)c1ccc([C@H]2CN(c3nc(-c4ccncc4F)cc(=O)n3C)CCO2)cc1
22,Active,Cn1c(N2CCO[C@@H](c3ccc(N4CCOCC4)cc3)C2)nc(-c2ccncc2F)cc1=O
23,Active,Cn1c(N2CCO[C@@H](c3ccc(N4CCNC4=O)cc3)C2)nc(-c2ccncc2F)cc1=O
24,Active,Cn1c(N2CCO[C@@H](c3ccc(N4CC[C@H](N5CCCC5)C4)cc3)C2)nc(-c2ccncc2F)cc1=O
25,Active,CN1CCN(c2ccc([C@H]3CN(c4nc(-c5ccncc5F)cc(=O)n4C)CCO3)cc2)CC1
26,Active,CN(c1ccc([C@H]2CN(c3nc(-c4ccncc4F)cc(=O)n3C)CCO2)cc1)C1CCCC1
27,Active,C[C@@H]1CN(c2ccc([C@H]3CN(c4nc(-c5ccncc5F)cc(=O)n4C)CCO3)cc2)C[C@H](C)O1
28,Active,Cn1c(N2CCO[C@@H](c3ccc(C(C)(C)O)cc3)C2)nc(-c2ccncc2F)cc1=O

# — ChEMBL document CHEMBL3727346, “6-(pyridinyl)-4-pyrimidone derivates as tau protein kinase 1 inhibitors” (2011)
